Measurements published in patent publication US10202361B2, “Pyridazinones as herbicides” (E I DU PONT DE NEMOURS AND COMPANY, priority 2014, dated 2019).

Key:
Assay type in all cases: in vivo
[1] = system: barley (winter barley, Hordeum vulgare); experiment: Test C postemergence greenhouse herbicide test
[2] = system: canarygrass (Phalaris minor); experiment: Test C postemergence greenhouse herbicide test
[3] = system: deadnettle (henbit deadnettle, Lamium amplexicaule); experiment: Test C postemergence greenhouse herbicide test
[4] = system: windgrass (Apera spica-venti); experiment: Test C postemergence greenhouse herbicide test
[5] = system: barnyardgrass (Echinochloa crus-galli); experiment: Test E pre-/postemergence greenhouse herbicide test; details: scale 0 to 100
Summary of the method: (§1)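 Pre- and postemergence greenhouse spray; compound in non-phytotoxic solvent + surfactant. Pre: silt loam soil at planting. Post: 1- to 4-leaf plants, 2 to 18 cm, peat-based medium. Visual score 0–100 vs untreated controls at 14 to 21 d.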

[6] = system: dayflower, VA (Virginia dayflower, Commelina virginica); experiment: as above; details: scale 0 to 100
Summary of the method: as §1

[7] = system: foxtail, giant (giant foxtail, Setaria faberii); experiment: as above; details: Preemergence, scale 0 to 100
Summary of the method: as §1

[8] = system: foxtail, green (green foxtail, Setaria viridis); experiment: as above; details: Preemergence, scale 0 to 100
Summary of the method: as §1

[9] = system: ragweed (common ragweed, Ambrosia elatior); experiment: as above; details: Preemergence, scale 0 to 100
Summary of the method: as §1

[10] = system: sandbur (southern sandbur, Cenchrus echinatus); experiment: as above; details: scale 0 to 100
Summary of the method: as §1

[11] = system: smartweed (ladysthumb smartweed, Polygonum persicaria); experiment: as above; details: scale 0 to 100
Summary of the method: as §1

[12] = system: velvetleaf (Abutilon theophrasti); experiment: as above; details: Preemergence, scale 0 to 100
Summary of the method: as §1

[13] = system: waterhemp_RES1 (ALS & Triazine resistant common waterhemp, Amaranthus rudis); experiment: Test E postemergence greenhouse herbicide test; details: scale 0 to 100
Experimental: (§2) At the same time, plants from these crop and weed species and also waterhemp_RES1, (ALS & Triazine resistant common waterhemp, Amaranthus rudis), and waterhemp_RES2, (ALS & HPPD resistant common waterhemp, Amaranthus rudis) were planted in pots containing Redi-Earth® planting medium (Scotts Company, 14111 Scottslawn Road, Marysville, Ohio 43041) comprising spaghnum peat moss, vermiculite, wetting agent and starter nutrients were treated with postemergence applications of test chemicals formulated in the same manner. Plants ranged in height from 2 to 18 cm for postemergence treatments (1- to 4-leaf stage). Treated plants and controls were maintained in a greenhouse for 14 to 21 d, after which time all species were compared to controls and visually evaluated. Plant response ratings, summarized in Table E, are based on a scale of 0 to 100 where 0 is no effect and 100 is complete control. A dash (-) response means no test result.

[14] = system: waterhemp_RES2 (ALS & HPPD resistant common waterhemp, Amaranthus rudis); experiment: Test E postemergence greenhouse herbicide test; details: scale 0 to 100
Experimental: as §2

## Cc1cc(=O)n(-c2ccc(F)cc2)nc1Oc1ccnc(C(F)(F)F)c1 [Compound 14, 2-(4-fluorophenyl)-5-methyl-6-[[2-(trifluoromethyl)-4-pyridinyl]oxy]-3 (2H)-pyridazinone]
[1]; 31 g ai/ha
  Plant response rating: 5
[1]; 62 g ai/ha
  Plant response rating: 5
[1]; 125 g ai/ha
  Plant response rating: 10
[1]; 250 g ai/ha
  Plant response rating: 25
[2]; 31 g ai/ha
  Plant response rating: 5
[2]; 62 g ai/ha
  Plant response rating: 5
[2]; 125 g ai/ha
  Plant response rating: 10
[2]; 250 g ai/ha
  Plant response rating: 15
[3]; 31 g ai/ha
  Plant response rating: 85
[3]; 62 g ai/ha
  Plant response rating: 85
[3]; 125 g ai/ha
  Plant response rating: 85
[3]; 250 g ai/ha
  Plant response rating: 85
[4]; 31 g ai/ha
  Plant response rating: 20
[4]; 62 g ai/ha
  Plant response rating: 20
[4]; 125 g ai/ha
  Plant response rating: 25
[4]; 250 g ai/ha
  Plant response rating: 30

## COc1cc(=O)n(-c2ccc(C(F)(F)F)cc2)nc1Cc1ccnc(C(F)(F)F)c1 [Compound 16, 5-methoxy-2-[4-(trifluoromethyl)phenyl]-6-[[2-(trifluoromethyl)-4-pyridinyl]methyl]-3(2H)-pyridazinone]
[5]; Postemergence, 62 g ai/ha
  Plant response rating: Barnyardgrass: 15
[5]; Postemergence, 125 g ai/ha
  Plant response rating: Barnyardgrass: 30
[5]; Postemergence, 250 g ai/ha
  Plant response rating: Barnyardgrass: 50
[5]; Preemergence, 62 g ai/ha
  Plant response rating: Barnyardgrass: 35
[5]; Preemergence, 125 g ai/ha
  Plant response rating: Barnyardgrass: 50
[5]; Preemergence, 250 g ai/ha
  Plant response rating: Barnyardgrass: 70
[6]; Postemergence, 62 g ai/ha
  Plant response rating: Dayflower, VA: 20
[6]; Postemergence, 125 g ai/ha
  Plant response rating: Dayflower, VA: 60
[6]; Postemergence, 250 g ai/ha
  Plant response rating: Dayflower, VA: 70
[6]; Preemergence, 62 g ai/ha
  Plant response rating: Dayflower, VA: 5
[6]; Preemergence, 125 g ai/ha
  Plant response rating: Dayflower, VA: 20
[6]; Preemergence, 250 g ai/ha
  Plant response rating: Dayflower, VA: 65
[7]; 62 g ai/ha
  Plant response rating: Foxtail, Giant: 75
[7]; 125 g ai/ha
  Plant response rating: Foxtail, Giant: 90
[7]; 250 g ai/ha
  Plant response rating: Foxtail, Giant: 100
[8]; 62 g ai/ha
  Plant response rating: Foxtail, Green: 50
[8]; 125 g ai/ha
  Plant response rating: Foxtail, Green: 95
[8]; 250 g ai/ha
  Plant response rating: Foxtail, Green: 100
[9]; 62 g ai/ha
  Plant response rating: Ragweed: 0
[9]; 125 g ai/ha
  Plant response rating: Ragweed: 0
[9]; 250 g ai/ha
  Plant response rating: Ragweed: 95
[10]; Postemergence, 62 g ai/ha
  Plant response rating: Sandbur: 30
[10]; Postemergence, 125 g ai/ha
  Plant response rating: Sandbur: 35
[10]; Postemergence, 250 g ai/ha
  Plant response rating: Sandbur: 50
[10]; Preemergence, 62 g ai/ha
  Plant response rating: Sandbur: 40
[10]; Preemergence, 125 g ai/ha
  Plant response rating: Sandbur: 65
[10]; Preemergence, 250 g ai/ha
  Plant response rating: Sandbur: 80
[11]; Postemergence, 62 g ai/ha
  Plant response rating: Smartweed: 40
[11]; Postemergence, 125 g ai/ha
  Plant response rating: Smartweed: 70
[11]; Postemergence, 250 g ai/ha
  Plant response rating: Smartweed: 70
[11]; Preemergence, 62 g ai/ha
  Plant response rating: Smartweed: 98
[11]; Preemergence, 125 g ai/ha
  Plant response rating: Smartweed: 98
[11]; Preemergence, 250 g ai/ha
  Plant response rating: Smartweed: 100
[12]; 62 g ai/ha
  Plant response rating: Velvetleaf: 0
[12]; 125 g ai/ha
  Plant response rating: Velvetleaf: 0
[12]; 250 g ai/ha
  Plant response rating: Velvetleaf: 50
[13]; 62 g ai/ha
  Plant response rating: Waterhemp_RES1: 95
[13]; 125 g ai/ha
  Plant response rating: Waterhemp_RES1: 100
[13]; 250 g ai/ha
  Plant response rating: Waterhemp_RES1: 100
[14]; 62 g ai/ha
  Plant response rating: Waterhemp_RES2: 90
[14]; 125 g ai/ha
  Plant response rating: Waterhemp_RES2: 95
[14]; 250 g ai/ha
  Plant response rating: Waterhemp_RES2: 100
